In BindingDB's records for doi:10.1111/j.1747-0285.2007.00514.x (University of Maryland, 2007) one finds Ki data, which are given here for six molecules.

SMILES strings stand for the structures.

Sequence of HIV-1 protease (O90783 whole entry): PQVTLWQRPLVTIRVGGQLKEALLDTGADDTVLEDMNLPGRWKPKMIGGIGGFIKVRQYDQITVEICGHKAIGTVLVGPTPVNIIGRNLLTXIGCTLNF

The test has as its target HIV-1 protease (Human immunodeficiency virus, UniProt O90783). Nature of the test: Inhibition Assay. An excerpt:
Inhibition assay using HIV protease and Sulfonamide compounds.
As a reminder, the Ki is a dissociation constant, usually derived from enzyme kinetics or from competition with a known ligand. The molecule `COc1cc(C(=O)N[C@@H](Cc2ccccc2)[C@H](O)CN(C[C@H]2CCCO2)S(=O)(=O)c2cn(C)cn2)ccn1` [CARB-AC97] yielded a Ki of 910 nM.
Consider `COc1cccc(S(=O)(=O)N(CC2CCCO2)C[C@@H](O)[C@H](Cc2ccccc2)NC(=O)c2ccnc(OC)c2)c1` (stereo partly specified) [CARB-AD08], for which the Ki amounted to 110 nM.
With `CNC(=O)CCC(=O)N[C@@H](Cc1ccccc1)[C@H](O)CN(C[C@@H](C)O)S(=O)(=O)c1cccc(OC)c1` [CARB-KB32] the figure was 760 nM; with `CNC(=O)CCC(=O)N[C@@H](Cc1ccccc1)[C@H](O)CN(C[C@@H](C)O)S(=O)(=O)c1ccco1` [CARB-KB49], 540 nM.
Then `C[C@@H](O)CN(C[C@@H](O)[C@H](Cc1ccccc1)NC(=O)CC1C=CCC1)S(=O)(=O)c1ccco1` (stereo partly specified) [CARB-KB51], with 260 nM.
In turn, `CC(=N[C@H]1c2ccccc2C[C@H]1O)[C@@H](Cc1ccccc1)C[C@H](O)CN1CCN(Cc2cccnc2)C[C@H]1C(=O)NC(C)(C)C` [IDV] yielded a Ki of 0.18 nM.
